Laboratory results as given in US20220000872A1, “METHOD OF ENHANCING IMMUNE-BASED THERAPY” (OncoTracker, Inc., priority 2018, published 2022).

Key:
PD-L1 gene expression = PD-L1 gene expression in BMMCs from MM patient #2188 co-cultured with HS-5 stromal cells or THP-1 monocytes; assay type: cell-based, human; details: RUX 1 μM, 48 hours
Experimental: We also examined the effects of RUX on PD-L1 gene expression in MM tumor cells co-cultured with stromal cells or monocytes in vitro. BMMCs from MM patient #2188 were co-cultured with stromal cells from the HS-5 cell line (ATCC, CRL-11882) with or without RUX (1 μM) treatment. After 48 hours of co-culture, PD-L1 gene expression was increased in both BMMCs (FIG. 5A) and stromal cells (FIG. 5B) from the co-culture of both cell types compared with its expression in those cell types cultured alone. The increased PD-L1 levels were reduced in the presence of RUX (1 μM) in both cell populations after 48 hours of culture. Similarly, PD-L1 gene expression was increased in both BMMCs and monocytes (THP-1 cells) after co-culture compared with cells cultured alone (FIG. 5C and FIG. 5D) and reduced following exposure to RUX (1 μM).
FIG. 5A depicts relative PD-L1 gene expression in BMMCs from patient #2188 cultured with stromal cells (ATCC, HS-5) with RUX (1 μM) or without for 48 hours. BM, bone marrow cells alone; BM+1 μM, BMMCs treated with 1 μM RUX; BM/BM+S−0 μM, BMMCs with stromal cells without RUX; BM/BM+S+1 μM, BMMCs with stromal cells and 1 μM RUX.
FIG. 5B depicts relative PD-L1 gene expression in stromal cells (ATCC, HS-5) co-cultured with BMMCs from patient #2188 on Transwell inserts with (1 μM) or without RUX for 48 hours. Stroma cells (S) alone; stromal cells+1 μM, stromal cells treated with RUX (1 μM); S/BM+S−0 μM, BMMCs with stromal cells without RUX; S/BM+S−1 μM, BMMCs with stromal cells with RUX at 1 μM.
FIG. 5C depicts relative PD-L1 gene expression in BMMCs from patient #2188 co-cultured with THP-1 monocytes treated with (1 μM) or without RUX for 48 hours. BM, BMMCs alone; BM+1 μM, BMMCs treated with 1 μM RUX; BM/BM+T−0 μM, BMMCs with THP-1 monocytes without RUX; BM/BM+T+1 μM, BMMCs with THP-1 monocytes treated with RUX 1 μM.
FIG. 5D depicts relative PD-L1 gene expression in THP-1 monocytes co-cultured with BMMCs from patient #2188 on Transwell inserts with (1 μM) or without RUX for 48 hours. THP-1 only, THP-1 cells alone; THP-1+1 μM, THP-1 cells treated with 1 μM RUX; T/BM+T−0 μM, MM BMMCs with THP-1 cells without RUX; T/BM+T−1 μM, BMMCs with THP-1 monocytes with RUX (1 μM).

[1] = tested on: PD-L2 gene and protein expression; assay: PD-L2 gene and protein expression in MM tumor cells alone or co-cultured with stromal cells (Example 11); assay type: cell-based, human; details: concentration dependent pattern
Experimental: BM mononuclear cells (MCs) and serum were collected from MM patients and healthy subjects after obtaining IRB approval. Single-cell suspensions were prepared from human MM LAGκ-1A xenografts which had been grown in the mice. The cells were cultured and treated with or without RUX and then were determined by qPCR, flow cytometric analysis, ELISA, and western blot.
We further investigated the effects of RUX on PD-L1 and PD-L2 expression in primary and stromal cells from MM patients' BM samples in vitro. […] We then determined whether RUX can augment the anti-MM effects of T-cells in vitro. […] To evaluate the efficacy of drugs in vivo, severe combined immune deficient mice implanted with the human MM xenograft LAGκ-2 were treated with RUX (30 mg/kg).

[2] = tested on: Tumor cells from the LAGκ-1A human MM xenograft; assay: Annexin V apoptosis assay of LAGκ-1A myeloma tumor cells with or without IL-2 pre-treated T-cells; assay type: cell-based; details: in the absence of T-cells
Experimental: T-cells (SUP-T1, ATCC) were pre-treated with IL-2 (20 ng/ml) for 24 hours. In the RUX at 1 μM with anti-PD-L1 group, the antibody concentrations were varied as indicated on the x-axis but the RUX was tested at a fixed concentration (1 μM). For the anti-PD-L1 at 5 mg/mL with RUX group, the RUX concentrations were varied as on the x-axis but the anti-PD-L1 antibody was evaluated at a fixed concentration (5 mg/mL). Tumor cells from the LAGκ-1A human MM xenograft were single-cell suspended and co-cultured with T cells treated with either RUX (1 μM) and anti-PD-L1 antibody or RUX alone for 72 hours. Tumor cell apoptosis was measured using the Annexin V assay per the manufacturer's protocol (Biovision) followed with flow cytometric analysis (FC-500 cytometer using Cytometric CXP software, both Beckman Coulter).
T-cells were pre-treated with IL-2 (20 ng/ml) for 24 hours. […] For the anti-PD-1 at 5 mg/mL with RUX group, the RUX concentrations were varied as on the x-axis but the anti-PD-1 antibody was evaluated at a fixed concentration (5 mg/mL). […] Tumor cell apoptosis was measured using the Annexin V assay per the manufacturer's protocol (Biovision) followed with flow cytometric analysis (FC-500 cytometer using Cytometric CXP software, both Beckman Coulter). […]

CD8 gene expression = CD8 gene expression in MMBM (Example 12); assay type: cell-based, human
Experimental: Bone marrow mononuclear cells (BMMCs) were collected from MM patients after obtaining IRB approval. Single-cell suspensions were prepared from human MM LAGλ-1A xenografts which had been grown in severe combined immunodeficient mice. HS-5 stromal and SUP-T1 T cells were purchased from ATCC. The cells were cultured and treated with or without RUX and then subjected to qRT-PCR, flow cytometric analysis, and western blot analysis. For qRT-PCR, total RNA was extracted and applied to cDNA synthesis, followed by qPCR. Gene expression was analyzed in MM BMMCs alone or co-cultured with stromal cells or T cells with or without Rux treatment (1 μM) in vitro.
Next, we tested whether B7-H3 blockade by Rux could potentially restore exhausted T cell activity against myeloma cells in MMBM.

SMILES: N#CC[C@H](C1CCCC1)n1cc(-c2ncnc3[nH]ccc23)cn1 [RUX, ruxolitinib]
- PD-L1 gene expression in stromal cells co-cultured with BMMCs (PD-L1 gene expression; HS-5 with patient #2188 BMMCs): reduced
- PD-L1 gene expression in monocytes (THP-1 cells) co-cultured with BMMCs (PD-L1 gene expression; THP-1 with patient #2188 BMMCs): reduced
- PD-L1 gene expression in BMMCs co-cultured with stromal cells (PD-L1 gene expression; patient #2188 BMMCs with HS-5): reduced
- PD-L1 gene expression in BMMCs co-cultured with monocytes (PD-L1 gene expression; patient #2188 BMMCs with THP-1): reduced
- PD-L2 gene and protein expression in MM tumor cells [1]: markedly reduced
- apoptosis of LAGκ-1A cells, single-agent treatment [2]: does not lead to significant apoptosis
- CD8 gene expression in BM cocultured with T cells (CD8 gene expression; SUP-T1): elevated
- CD8 gene expression in MMBM with lower plasma percentages (CD8 gene expression; plasma cell percentage <30%): increase
